According to ChEMBL document CHEMBL4376881, “Toggling Preassembly with Single-Site Mutation Switches the Cytotoxic Mechanism of Cationic Amphipathic Peptides” (J Med Chem, 2020):
pIC50: −log10 of the molar value. Calls of active or inactive are those of the source. The calls are words filed in the database; no cut-off is given here.

Experiments:
HeLa [1] = test: Induction of membrane lysis in human HeLa cells assessed as loss of membrane integrity at cytotoxic IC50 level incubated for 15 mins by Propidium iodide staining based confocal laser scanning microscopy relative to control; type: functional
[2] = Self aggregation assessed as formation of nano fibers of varying lengths at 32 uM by atomic force microscopy; type: physicochemical
HeLa [3] = test: Induction of apoptosis in human HeLa cells assessed as increase in caspase 3/7 activity at cytotoxic IC50 level using Ac-DEVD- pNA substrate incubated for 15 to 60 mins; type: functional, cell-based
[4] = Drug localization in endoplasmic reticulum of human HeLa cells using FITC-labeled compound at cytotoxic IC50 level incubated for 30 mins by ER-tracker red dye based confocal laser scanning microscopy; type: subcellular; details: 0.5 h
A549 = test: Cytotoxicity against human A549 cells assessed as reduction in cell viability incubated for 1 hr by MTT assay; type: functional, cell-based; details: A549, 1 h
[5] = Self aggregation up to 128 uM in PBS buffer by ANS fluorescent probe based aggregate incorporation assay; type: physicochemical
HeLa [6] = test: Suppression of mitochondrial membrane potential in human HeLa cells at cytotoxic IC50 level incubated for 15 mins by rhodamine 123 dye based flow cytometry; type: functional, cell-based
[7] = Selectivity index, ratio of HC10 for induction of hemolysis in human erythrocytes assessed as hemoglobin release incubated for 2 hrs by UV absorbance based method to IC50 for cytotoxicity against human MCF7 cells assessed as reduction in cell viability incubated for 1 hr by MTT assay
[8] = Drug localization in nucleoli of human HeLa cells using FITC-labeled compound at cytotoxic IC50 level incubated for 30 mins by confocal laser scanning microscopy; type: subcellular; details: 0.5 h
HeLa [9] = test: Induction of oxidative stress in human HeLa cells assessed as increase in reactive oxygen species at cytotoxic IC50 level incubated for 15 mins by CellROX deep red reagent based flow cytometry; type: functional, cell-based
MCF7 = test: Cytotoxicity against human MCF7 cells assessed as reduction in cell viability incubated for 1 hr by MTT assay; type: functional, cell-based; details: MCF7, 1 h
[10] = Drug localization in lysosome of human HeLa cells using FITC-labeled compound at cytotoxic IC50 level incubated for 30 mins by Lysotracker red dye based confocal laser scanning microscopy; type: subcellular; details: 0.5 h
[11] = Selectivity index, ratio of HC10 for induction of hemolysis in human erythrocytes assessed as hemoglobin release incubated for 2 hrs by UV absorbance based method to IC50 for cytotoxicity against human HL60 cells assessed as reduction in cell viability incubated for 1 hr by MTT assay
K562 = test: Cytotoxicity against human K562 cells assessed as reduction in cell viability incubated for 1 hr by MTT assay; type: functional, cell-based; details: K562, 1 h
HL-60 = test: Cytotoxicity against human HL60 cells assessed as reduction in cell viability incubated for 1 hr by MTT assay; type: functional, cell-based; details: HL-60, 1 h
[12] = Selectivity index, ratio of HC10 for induction of hemolysis in human erythrocytes assessed as hemoglobin release incubated for 2 hrs by UV absorbance based method to IC50 for cytotoxicity against human HeLa cells assessed as reduction in cell viability incubated for 1 hr by MTT assay
HeLa [13] = test: Cytotoxicity against human HeLa cells assessed as reduction in cell viability incubated for 1 hr by MTT assay; type: functional, cell-based
[14] = Selectivity index, ratio of HC10 for induction of hemolysis in human erythrocytes assessed as hemoglobin release incubated for 2 hrs by UV absorbance based method to IC50 for cytotoxicity against human A549 cells assessed as reduction in cell viability incubated for 1 hr by MTT assay
[15] = Drug localization in mitochondria of human HeLa cells using FITC-labeled compound at cytotoxic IC50 level incubated for 30 mins by Mito-tracker red dye based confocal laser scanning microscopy; details: 0.5 h
[16] = Induction of hemolysis in human erythrocytes assessed as hemoglobin release incubated for 2 hrs by UV absorbance based method; type: cell-based; details: erythrocyte
[17] = Selectivity index, ratio of HC10 for induction of hemolysis in human erythrocytes assessed as hemoglobin release incubated for 2 hrs by UV absorbance based method to IC50 for cytotoxicity against human K562 cells assessed as reduction in cell viability incubated for 1 hr by MTT assay
HeLa [18] = test: Cytotoxicity against human HeLa cells assessed as reduction in cell viability at 4 degC at 1 to 16 uM incubated for 1 hr by MTT assay; type: functional, cell-based
HeLa [19] = test: Induction of membrane lysis in human HeLa cells assessed as increase in number of enlarged outward budding vesicles at cytotoxic IC50 level incubated for 15 mins by annexin V-FITC and by propidium iodide staining; type: functional, cell-based
[20] = Drug localization in cell membrane of human HeLa cells using FITC-labeled compound at cytotoxic IC50 level incubated for 30 mins by confocal laser scanning microscopy; type: cell membranes; details: 0.5 h
HeLa [21] = test: Cytotoxicity against human HeLa cells assessed as reduction in cell viability at cytotoxic IC50 in presence of 1.5 to 150 ng/mL sodium heparin incubated for 1 hr by MTT assay; type: functional, cell-based
[22] = Self aggregation at >8 uM in PBS buffer by ANS fluorescent probe based aggregate incorporation assay; type: physicochemical

Substance	Activity [5]	Activity (HeLa [1])	pIC50 (A549)	Selectivity Index [7]	pIC50 (MCF7)	Selectivity Index [11]	pIC50 (K562)	pIC50 (HL-60)	Selectivity Index [12]	pIC50 (HeLa [13])	Selectivity Index [14]	HC10 [16] [µM]	Selectivity Index [17]	other results
H-KELKLLKKLLKLLK-OH	Not Active	inactive	4.87	4.25	4.84	18.7	5.62	5.48	9.13	5.17	4.58	61.7	25.7	Activity [2]: Not Active; Activity (HeLa [3]): Active; Drug uptake [4]: Active; Activity (HeLa [6]): Active; Drug uptake [8]: Active; Activity (HeLa [9]): Active; Drug uptake [10]: Active; Drug uptake [15]: Active; Activity (HeLa [18]): inactive; Activity (HeLa [19]): inactive
H-KLLKLEKKLLKLLK-OH	Not Active	–	–	–	–	–	–	–	–	< 4.19	–	–	–	–
H-KLLKLLKKLLKLEK-OH	Not Active	inactive	–	–	–	–	–	–	–	4.66	–	–	–	–
H-KLLKLLKKLLKLLK-OH	–	50%	5.43	0.12	5.37	0.21	5.85	5.60	0.11	5.34	0.14	0.52	0.37	Activity [2]: Active; Drug uptake [20]: Active; Activity (HeLa [21]): Active; Activity [22]: Dose-dependent effect; Activity (HeLa [19]): Active
H-KQLKLLKKLLKLLK-OH	Not Active	inactive	5.20	3.95	5.05	17.8	5.74	5.70	6.77	5.28	5.59	35.5	19.7	–

Second part, led by results:

Activity [5]	Substance	Activity (HeLa [1])	pIC50 (A549)	Selectivity Index [7]	pIC50 (MCF7)	Selectivity Index [11]	pIC50 (K562)	pIC50 (HL-60)	Selectivity Index [12]	pIC50 (HeLa [13])	Selectivity Index [14]	HC10 [16] [µM]	Selectivity Index [17]	other results
Not Active	H-KKLKLLKKLLKLLK-OH	inactive	5.46	3.14	5.21	11.5	5.89	5.77	5.74	5.47	5.53	19.5	15	–
Not Active	H-KLEKLLKKLLKLLK-OH	inactive	–	–	–	–	–	–	–	5.21	–	–	–	–
Active	H-KLLELLKKLLKLLK-OH	Active	–	–	–	–	–	–	–	5.28	–	–	–	–
Not Active	H-KLLKELKKLLKLLK-OH	inactive	–	–	–	–	–	–	–	5.07	–	–	–	–
Not Active	H-KLLKLLKKELKLLK-OH	–	–	–	–	–	–	–	–	< 4.19	–	–	–	–
Not Active	H-KLLKLLKKLEKLLK-OH	inactive	–	–	–	–	–	–	–	4.95	–	–	–	–
Not Active	H-KLLKLLKKLLKELK-OH	inactive	–	–	–	–	–	–	–	5.29	–	–	–	–
